The text below walks through data of PMC11618052, “Design, synthesis, and antiproliferative activity of new 1,2,3-triazole/quinazoline-4-one hybrids as dual EGFR/BRAF^V600E inhibitors” (RSC Advances, 2024).

One may read the IC50 as the concentration that gives 50% inhibition. A word on the GI50: it is the concentration at which growth is held to half of that of the control. A word on the viability: it is the share of living cells, or the viability signal relative to a control.

The target in one series is T1, EGFR (Homo sapiens, UniProt P00533).
T1 construct: 645–1186; His6 (N); made in house; host or cells: Sf-9 insect cells (baculovirus; pBlueBacHis2B / pFASTBacHTc)
T1 sequence (P00533 669-1210): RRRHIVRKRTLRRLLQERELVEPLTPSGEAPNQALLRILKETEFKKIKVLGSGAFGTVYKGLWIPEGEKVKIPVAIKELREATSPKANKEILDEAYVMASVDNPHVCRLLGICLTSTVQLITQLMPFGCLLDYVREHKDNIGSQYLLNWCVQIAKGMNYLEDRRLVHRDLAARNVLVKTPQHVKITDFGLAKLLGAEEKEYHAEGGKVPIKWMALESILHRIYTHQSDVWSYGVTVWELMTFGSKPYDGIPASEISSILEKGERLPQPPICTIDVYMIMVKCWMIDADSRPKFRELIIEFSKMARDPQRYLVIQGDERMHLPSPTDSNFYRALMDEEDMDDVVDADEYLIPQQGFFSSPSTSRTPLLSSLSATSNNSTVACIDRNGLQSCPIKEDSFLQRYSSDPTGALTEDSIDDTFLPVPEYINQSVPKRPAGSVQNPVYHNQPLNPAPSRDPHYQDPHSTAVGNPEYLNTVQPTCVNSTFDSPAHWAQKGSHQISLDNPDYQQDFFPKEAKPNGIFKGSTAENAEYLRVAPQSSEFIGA
As to the kind of experiment: EGFR-TK inhibitory assay. The class given is biochemical. The following applies: read-out: EGFR inhibition IC50 ± SEM. As for the experimental part:
Sf-9 cells were infected for 72h for protein expression. […]
centrifugation for 20 min.
Histidine-linked proteins were first eluted with 250 and then […]
using wash buffer. Europium-tagged antiphosphotyrosine antibody (75 µL, 400 ng) was added to each well followed by incubation of 1h and then washing of the plates using buffer. The enhancement solution was added to each well and the signal was recorded at excitation and […]
The autophosphorylation percentage inhibition by compounds was calculated using the following equation: […]

Another series has as its system breast cancer (MCF-7). As to the kind of experiment: Antiproliferative MTT assay, MCF-7. The class given is cell-based. The following applies: Homo sapiens, MCF7, MCF-7 breast cancer cells, read-out: Antiproliferative activity IC50 ± SEM, MCF-7. As for the experimental part:
(§1) The median inhibitory concentration (IC50) and GI50 (mean IC50) for the four cancer cell lines were calculated. Appendix A ^† contains more details. […]
A general note: Tetrazolium dyes change colour on reduction, which living cells bring about.

Series [1] deals with four human cancer cell lines (A-549, MCF-7, Panc-1, HT-29). Description: Antiproliferative MTT assay, mean over the four cancer cell lines. The class given is cell-based. The following applies: Homo sapiens, mean IC50 over A-549, MCF-7, Panc-1, HT-29. As for the experimental part: as §1
The next series has as its target BRAF^V600E. As to the kind of experiment: BRAF^V600E kinase inhibitory assay.
The subject of a further series is colon cancer (HT-29). Description: Antiproliferative MTT assay, HT-29. The following applies: Homo sapiens, HT-29 colon cancer cells, read-out: Antiproliferative activity IC50 ± SEM, HT-29. The class given is cell-based. The method, then:
as §1

The subject of series [2] is pancreatic cancer (Panc-1). As to the kind of experiment: Antiproliferative MTT assay, Panc-1. The class given is cell-based. The following applies: Homo sapiens, Panc-1 pancreatic cancer cells, read-out: Antiproliferative activity IC50 ± SEM, Panc-1. The method, then: as §1
Series [3] in a line: Cell viability MTT assay on MCF-10A normal cells. The series is classed as cell-based. The following applies: human, MCF-10A normal mammary gland epithelial cells, MCF-10A cells, four days of incubation. As for the experimental part:
The viability of new compounds 8a–t was evaluated using the MCF-10A normal human mammary gland epithelial cell line. The cell viability of compounds 8a–t was examined using the MTT assay[36] after four days of incubation with MCF-10A cells. For more details, see Appendix A (ESI file). ^† […]
We evaluated the viability of new compounds 8a–t using the MCF-10A normal human mammary gland epithelial cell line. The cell viability of compounds 8a–t was examined using the MTT assay[36] after four days of incubation with MCF-10A cells.
4.2. Biological evaluation
4.2.1. Cytotoxic activity using MTT Assay and evaluation of IC 50
MTT assay was carried out to study the effect of compounds on mammary epithelial cells (MCF-10A). The medium in which cells were propagated contained Dulbecco's modified Eagle's medium (DMEM)/ Ham's F-12 medium (1:1) supplemented with epidermal growth factor (20 ng/mL), hydrocortisone (500 ng/mL), insulin (10 μg/mL), 2 mM glutamine and 10% foetal calf serum.
After every 2-3 days, the cells were passaged using trypsin ethylenediamine tetra acetic acid (EDTA). The cells were seeded at a density of 10^4 cells mL-1 in flat-bottomed culture plates containing 96 wells each. After 24 h, medium was removed from the plates and the compounds in (in 0.1% DMSO) were added (in 200 μL medium to yield a final concentration of 0.1% v/v) to the wells of plates. A single compound was designated with four wells followed by incubation of plates for 96h at 37°C. After incubation, medium was removed completely from the plates followed by addition of MTT (0.4 mg/mL in medium) to each well and subsequent incubation of plates for 3h. MTT (along with the medium) was removed and DMSO (150μL) was added to each well of the culture plates, followed by vortexing and subsequent measurement of absorbance (at 540 nm) using microplate reader. The data are shown as percentage inhibition of proliferation in comparison with controls containing 0.1% DMSO. […]

For series [4], the system named is A-549 cells. Description: Apoptosis induction assay, annexin V/PI, in A-549. The series is classed as cell-based, human. The following applies: A-549, annexin V/PI, 24 hours. As for the experimental part:
(§2) The impact of compound 8g on cell cycle progression and apoptosis induction was examined in A-549 cells. […] We stained the cell line with PI/annexin V and performed flow cytometry using a BD FACS Caliber.[41] Refer to Appendix A ^† for more details.
A-549 cells was stained with annexin V/PI, cultured for 24 hours, and analyzed them to examine 8g's capacity to cause apoptosis.
Avoid direct exposure to intense light. The point, at which the substrate reaction is stopped, is often determined by the ELISA reader. Many ELISA readers record absorbance only up to 2.0
O.D. Therefore, the color development within individual microwells must be watched by the person running the assay and the substrate reaction stopped before positive wells are no longer properly detectable. […] Results must be read immediately after the Stop Solution is added or within one hour if the microwell strips are stored at 2 - 8°C in the dark. Read absorbance of each microwell on a spectrophotometer using 450 nm as the primary wavelength. […]
Apoptosis was determined by flow cytometry based on the Annexin-V-fluoresce in isothiocyanate (FITC) and propidium iodide (PI) staining kit (BD Pharmingen, San Diego, USA).
(FITC) and propidium iodide (PI) staining kit (BD Pharmingen, San Diego, USA). […] Subsequently, cells were analyzed by flow cytometry (Becton Dickinson, Franklin Lakes, and USA).

Series [5] concerns A-549 cells. As to the kind of experiment: Cell cycle analysis by flow cytometry in A-549. The series is classed as cell-based, human. The following applies: A-549, IC50 concentration of 8g, 24 hours.
Excerpt: as §2
The effects of 8g on cell cycle progression and apoptosis induction in A-549 cells were examined. […] We stained the cell line with PI/annexin V and performed flow cytometry using a BD FACS Caliber.[41] […] This means a cell cycle arrest at the G1 transition.
A general note: A flow cytometer gives signals particle by particle.

Sequence of BRAF^V600E (P28028 whole entry V585E): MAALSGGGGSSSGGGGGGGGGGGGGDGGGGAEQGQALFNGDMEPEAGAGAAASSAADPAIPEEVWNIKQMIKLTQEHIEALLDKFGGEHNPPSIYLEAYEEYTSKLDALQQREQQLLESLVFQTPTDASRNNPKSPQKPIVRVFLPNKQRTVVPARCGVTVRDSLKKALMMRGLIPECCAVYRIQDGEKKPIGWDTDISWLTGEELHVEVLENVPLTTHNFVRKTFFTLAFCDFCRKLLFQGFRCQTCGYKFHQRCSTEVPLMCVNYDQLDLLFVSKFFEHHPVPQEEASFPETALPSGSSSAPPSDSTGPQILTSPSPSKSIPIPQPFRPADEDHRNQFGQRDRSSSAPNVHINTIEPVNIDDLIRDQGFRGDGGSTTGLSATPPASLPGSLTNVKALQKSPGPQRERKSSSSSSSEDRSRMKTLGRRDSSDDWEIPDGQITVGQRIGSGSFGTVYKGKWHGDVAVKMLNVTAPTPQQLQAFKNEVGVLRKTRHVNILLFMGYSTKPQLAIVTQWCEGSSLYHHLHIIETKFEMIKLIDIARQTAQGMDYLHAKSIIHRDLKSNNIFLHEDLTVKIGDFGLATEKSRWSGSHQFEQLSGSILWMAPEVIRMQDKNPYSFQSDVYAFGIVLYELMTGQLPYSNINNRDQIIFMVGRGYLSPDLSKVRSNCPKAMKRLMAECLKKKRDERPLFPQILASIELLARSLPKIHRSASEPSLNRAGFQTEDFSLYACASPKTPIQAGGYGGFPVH
Method for BRAF^V600E: V600E mutant BRAF kinase assay was performed to investigate the activity of tested compounds against BRAF. Mouse full-length GST-tagged BRAFV600E (7.5 ng, Invitrogen, PV3849) was pre-incubated with drug (1 µL) and assay dilution buffer (4 µL) for 60 min at 25 °C. In assay dilution buffer, a solution (5 µL) containing MgCl2 (30 mM), ATP (200 µM), recombinant human full length (200 ng) and N-terminal His-tagged MEK1 (Invitrogen) was added to start the assay, subsequent to incubation for 25 min at 25 °C. The assay was stopped using 5X protein denaturing buffer (LDS) solution (5 µL). To further denature the protein, heat (70° C) was applied for 5 min.
10 µL of each reaction was loaded into the precast plates and electrophoresis was allowed to proceed. After completion of electrophoresis, the front part of the precast gel plate (holding hot ATP) was cut and afterwards cast-off. The dried gel was developed using a phosphor screen. A

For the compound `Cc1ccc(-n2cc(CSc3nc4ccccc4c(=O)n3-c3ccc(C)cc3)nn2)cc1` [Compound 8h, 2-(((1-(p-Tolyl)-1H-1,2,3-triazol-4-yl)methyl)thio)-3-(p-tolyl)quinazolin-4(3H)-one], the IC50 on EGFR was 74 ± 5 nM; in the series with breast cancer (MCF-7), 22 ± 1 nM; against BRAF^V600E it was 55 ± 5 nM; in the series on colon cancer (HT-29), 27 ± 1 nM; in series [2] it was 26 ± 1 nM. Also, in series [1], growth was halved (GI50) at 25 nM. Also, the viability at 4 days, 50 µM in [3] turned out to be 92%.
On to `COc1ccc(-n2cc(CSc3nc4ccccc4c(=O)n3-c3ccc(C)cc3)nn2)cc1` [Compound 8g, 2-(((1-(4-Methoxyphenyl)-1H-1,2,3-triazol-4-yl)methyl)thio)-3-(p-tolyl)quinazolin-4(3H)-one], for which the IC50 at EGFR turned out to be 68 ± 4 nM; with breast cancer (MCF-7) it was 20 ± 1 nM; against BRAF^V600E, 47 ± 3 nM; with colon cancer (HT-29) it was 24 ± 1 nM; in series [2], 24 ± 1 nM. For the same compound, the Necrosis percentage in the series on A-549 cells [4] was found to be 4.39%. Besides, in series [1], it took 22 nM to inhibit growth by half (GI50). In [3], this compound showed a viability at 4 days, 50 µM of 88%. The “Cells in G0/G1 phase (%DIP G1)” value with A-549 cells [5] stood at 86%.
